We go through one molecule from patent publication US10899879B2, “Biodegradable trehalose glycopolymers” (THE REGENTS OF THE UNIVERSITY OF CALIFORNIA, priority 2014, dated 2021).

SMILES strings stand for the structures.

In one experiment the target is lysozyme (Gallus gallus, UniProt P00698). In words: Stabilization of lysozyme against heat stress with trehalose-CL as excipient. The class given is biochemical. The conditions noted are these: lysozyme 0.02 mg/mL heated to 90° C. for 20 minutes; additive 5 to 25 wt eq.; FIG. 12a. Here is the method:
Stabilization of model proteins using trehalose-caprolactone as excipient. The ability of these biodegradable trehalose polymers to stabilize proteins was confirmed through heat and lyophilization stress assays. […] Therefore, these proteins were also selected to test the biodegradable trehalose polymers. First, lysozyme was stressed by heating to 90° C. for 20 minutes.
Trehalose-CL and a styrenyl ether trehalose (SET) polymer previously described were also directly compared in their stabilization of lysozyme (FIG. 13) (Lee et al., 2013). […] Thus, the degradable trehalose glycopolymer was similar in stabilization ability to the non-degradable version.

For the next experiment, the system named is β-galactosidase (β-Gal). Conditions: three 12-hour desiccation cycles; 25 equivalents of trehalose; FIG. 12b.

Chain of lysozyme (P00698 19-147): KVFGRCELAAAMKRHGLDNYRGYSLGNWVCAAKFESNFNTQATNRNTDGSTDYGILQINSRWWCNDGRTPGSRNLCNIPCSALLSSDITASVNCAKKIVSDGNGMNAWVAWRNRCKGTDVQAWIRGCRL
Description for β-galactosidase (β-Gal): The stabilization of β-Gal against lyophilization stress was also measured. […] The activity of β-Gal was determined by reaction with ortho-nitrophenol galactose (ONPG). When incubated with β-Gal, release of the yellow-colored o-nitrophenol from ONPG can be monitored at 405 nm.
The activity of β-Gal was determined by reaction with ortho-nitrophenol galactose (ONPG). When incubated with β-Gal, release of the yellow-colored o-nitrophenol from ONPG can be monitored at 405 nm.
Lyophilization studies with β-galactosidase were carried out as previously described; β-Gal was subjected to three 12 hour lyophliization cycles before dilution. Activity was assayed by monitoring the hydrolysis of o-nitrophenol galactose (ONPG) at 405 nm.

Regarding `OC[C@H]1O[C@H](O[C@H]2O[C@H](CO)[C@@H](O)[C@H](O)[C@H]2O)[C@H](O)[C@@H](O)[C@@H]1O` [trehalose], the “lysozyme native activity retained after heat stress” value at lysozyme is “not significantly different from the negative control”. The “β-Gal native activity maintained after lyophilization stress, 25 equivalents of additive” value in the experiment with β-galactosidase (β-Gal) was “up to 67%”.
